Measured values taken from patent publication US20250171400A1, “AZA-HETEROCYCLYL CARBOXAMIDE AND RELATED COMPOUNDS AND THEIR USE IN TREATING MEDICAL CONDITIONS” (X-BIOTIX THERAPEUTICS, INC., priority 2021, published 2025).
Converted amounts (≈) assume the structure as drawn. Where two headings read alike, the source gives them in different places.

Key:
E. coli LpxC = E. coli LpxC (Escherichia coli (strain K12), UniProt P0A725); test: in vitro substrate deacetylation assay for inhibition of LpxC (ADDA analysis); type: biochemical; conditions: 5 nM E. coli LpxC, 2.5 μM substrate, 1 hour at room temperature
Chain of E. coli LpxC (P0A725 whole entry): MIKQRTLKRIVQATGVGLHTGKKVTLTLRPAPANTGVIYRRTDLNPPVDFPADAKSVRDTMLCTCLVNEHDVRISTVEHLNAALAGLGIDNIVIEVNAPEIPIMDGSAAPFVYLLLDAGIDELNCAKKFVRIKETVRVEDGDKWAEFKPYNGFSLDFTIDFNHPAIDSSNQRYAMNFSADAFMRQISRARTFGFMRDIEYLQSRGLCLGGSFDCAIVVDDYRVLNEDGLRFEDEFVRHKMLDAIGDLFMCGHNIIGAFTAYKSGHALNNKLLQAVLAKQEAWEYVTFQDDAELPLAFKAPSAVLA
Procedure: (§1) Exemplary compounds from the above Examples were tested for ability to inhibit LpxC activity using an in vitro substrate deacetylation assay with ADDA™ analysis. Assay procedures and results are described below.
Dilutions of test compound were pre-incubated with 5 nM P. aeruginosa or E. coli LpxC for 10 minutes at room temperature in 50 mM NaH2PO4, 500 mM sucrose, 0.2 mg/mL BSA, pH 7.2 and <1% DMSO. Reactions were initiated by the addition of 2× substrate (UDP-3-O—(R-3-hydroxydecanoyl)-N-acetylglucosamine, Carbosynth Ltd, UK, for P. aeruginosa LpxC and UDP-3-O—(R-3-hydroxymyristoyl)-N-acetylglucosamine, BOC Sciences, USA, for E. coli LpxC), in 50 mM NaH2PO4, 0.5 mg/mL BSA, pH 7.2, to a final concentration of 2.5 μM. Reactions proceeded for 1 hour at room temperature prior to quenching with and equal volume of 2% acetic acid.
For ADDA™ analysis, an aliquot of assay sample was withdrawn from each well of the 384-well plate and applied to a Hypercarb cartridge (Optimize Technologies, USA) under conditions designed to retain analytes of interest. Analytes were eluted using 1:1:2 acetone:acetonitrile:water containing 5 mM ammonium acetate then analysed by triple-quadrupole mass spectrometry. Mass spectrometry was carried out using electrospray ionization in negative ion mode. Daughter ion peaks representing detected substrate (P. aeruginosa: parent Q1 mass=775.8 amu, daughter Q3 mass=384.7 amu E. coli: parent Q1 mass=833.0 amu, daughter Q3 mass=385.0 amu, collision energy=analyte specific, dwell time=50 ms) were identified using a multiple-reaction monitoring protocol.
Total activity (0% inhibition) was obtained from reactions containing no compound, and 100% inhibition is defined as reactions in the presence of 1 μM CHIR-090 (N-[(1S,2R)-2-hydroxy-1-[(hydroxyamino)carbonyl]propyl]-4-[2-[4-(4-morpholinylmethyl)phenyl]ethynyl]-benzamide). For IC50 determinations, peak areas of the substrate and product were compared to compute the proportion of substrate reacted by the LpxC enzyme at each compound concentration. The fractional activity was converted to percentage inhibition and plotted against compound concentration in ActivityBase™ and fit using a four-parameter logistic using non-linear regression to yield the IC50 value.

P. aeruginosa LpxC = P. aeruginosa LpxC (Pseudomonas aeruginosa (strain ATCC 15692 / DSM 22644 / CIP 104116 / JCM 14847 / LMG 12228 / 1C / PRS 101 / PAO1), UniProt P47205); test: biochemical; type: biochemical; conditions: 5 nM P. aeruginosa LpxC, 2.5 μM substrate, 1 hour at room temperature
Procedure: as §1
For ADDA™ analysis, an aliquot of assay sample was withdrawn from each well of the 384-well plate and applied to a Hypercarb cartridge (Optimize Technologies, USA) under conditions designed to retain analytes of interest. Analytes were eluted using 1:1:2 acetone:acetonitrile:water containing 5 mM ammonium acetate then analysed by triple-quadrupole mass spectrometry. Mass spectrometry was carried out using electrospray ionization in negative ion mode.
For IC50 determinations, peak areas of the substrate and product were compared to compute the proportion of substrate reacted by the LpxC enzyme at each compound concentration.

[1] = system: E. coli BW25113 isogenic mutant deficient in acrA mediated efflux; test: broth microdilution minimum inhibition concentration assay; type: cell-based; conditions: Escherichia coli, BW25113, read-out: E. coli KO MIC
Procedure: (§2) Exemplary compounds from the above Examples were tested to determine their minimum inhibitory concentration (MIC) for exemplary strains of Eschericia and Pseudomonas bacteria using broth microdilution methods. Assay procedures and results are described below.
(§3) Broth microdilution assays were conducted according to Clinical and Laboratory Standards Institute guidelines (CLSI, M07-A11: Clinical and Laboratory Standards Institute. Methods for Dilution Antimicrobial Susceptibility Tests for Bacteria that Grow Aerobically; Approved Standard—11th Edition. Wayne, PA: CLSI, 2018.). Briefly, a 0.5 McFarland standard suspension was made from bacterial isolates on non-selective, solid media. The inocula were adjusted to give a bacterial concentration of 1×10^6 CFU/mL. Serial doubling-dilutions of each compound were prepared in cation-adjusted Mueller-Hinton broth (Sigma-Aldrich) in 96-well microdilution plates. A 50 μL aliquot of the inoculum was added to each microdilution plate and, within 15 minutes, incubated at 37° C. in air for 16-20 h. […] The test was controlled by the determination of piperacillin MIC against both E. coli ATCC 25922 and P. aeruginosa ATCC 27853 and ensuring accordance with the ranges published in CLSI supplementary document M100 (CLSI, M100Ed29: Clinical and Laboratory Standards Institute. Performance Standards for Antimicrobial Susceptibility Testing, 29th Edition. Wayne, PA: CLSI, 2018.).
(§4) Multiple enterobacteriaceae strains were tested, including E. coli ATCC 25922 and K. pneumoniae ATCC 43816. WT E. coli BW25113 was tested with an isogenic mutant deficient in acrA mediated efflux by clean deletion. WT P. aeruginosa PAO1 was tested with an isogenic mutant deficient in MexA mediated efflux by clean deletion.
(§5) Experimental results are provided in Table 4, which provides MIC values for wild-type E. coli BW25113 (“E. coli WT MIC”), an isogenic mutant deficient in acrA mediated efflux by clean deletion (“E. coli KO MIC”), wild-type P. aeruginosa PAO1 (“P. aeruginosa WT MIC”), and an isogenic mutant deficient in MexA mediated efflux by clean deletion (“[…]”).

[2] = system: P. aeruginosa PAO1 isogenic mutant deficient in MexA mediated efflux; test: as above; type: cell-based; conditions: Pseudomonas aeruginosa, PAO1, read-out: P. aeruginosa KO MIC
Procedure: as §2, §3, §4, §5

[3] = system: wild-type E. coli BW25113; test: as above; type: cell-based; conditions: Escherichia coli; wild-type E. coli BW25113, 37° C. 16-20 h; read-out: E. coli WT MIC
Procedure: as §2, §3, §4, §5

[4] = system: wild-type P. aeruginosa PAO1; test: as above; type: cell-based; conditions: Pseudomonas aeruginosa
Procedure: as §2, §3, §4, §5

[5] = PAO1, read-out: P. aeruginosa WT MIC
[6] = wild-type P. aeruginosa PAO1, 37° C. 16-20 h, read-out: P. aeruginosa WT MIC

Row | SMILES | IC50 (E. coli LpxC) [nM] | IC50 (P. aeruginosa LpxC) [nM] | MIC [1] [µM] | MIC [2] [µM] | MIC [3] [µM] | MIC [4, 5] [µM] | MIC [4, 6] [µM]
1 | COCCN1C[C@H](NC(=O)[C@@H]2C[C@H](F)CN2)C[C@@H]1C(=O)NCc1ccc(C#CC#CC2CC2)cc1 [Example 9AM, (2R,4R)—N-(4-(Cyclopropylbuta-1,3-diyn-1-yl)benzyl)-4-((2S,4S)-4-fluoropyrrolidine-2-carboxamido)-1-(2-methoxyethyl)pyrrolidine-2-carboxamide] | 2500 to 10000 | 100 to 1000 | > 100 | > 100 | > 100 | > 100 | 
2 | CC(C)C(=O)N1C[C@H](NC(=O)[C@@H]2C[C@H](C#N)CN2)C[C@@H]1C(=O)NCc1ccc(C#Cc2ccc(CN3CCOCC3)cc2)cc1 [Example 9AD, (2R,4R)-4-((2S,4S)-4-Cyanopyrrolidine-2-carboxamido)-1-isobutyryl-N-(4-((4-(morpholinomethyl)phenyl)ethynyl)benzyl)pyrrolidine-2-carboxamide] | < 500 | < 50 | 20 to 100 (≈ 12.2 to 61.1 µg/mL) | < 20 | > 100 |  | > 100
3 | O=C(NC[C@H]1C[C@@H](NC(=O)[C@@H]2C[C@H](F)CN2)CN1C(=O)C1CC1)c1ccc(C#Cc2ccc(CN3CCOCC3)cc2)c(F)c1 [Example 8, (2S,4S)—N-((3R,5R)-1-(cyclopropanecarbonyl)-5-((3-fluoro-4-((4-(morpholinomethyl)phenyl)ethynyl)benzamido)methyl)pyrrolidin-3-yl)-4-fluoropyrrolidine-2-carboxamide] | < 500 | < 50 | < 20 | < 20 | < 20 |  | 20 to 100 (≈ 12.4 to 62 µg/mL)
4 | CC(C)C(=O)N1C[C@H](NC(=O)[C@@H]2C[C@H](F)CN2)C[C@@H]1C(=O)NCc1ccc(C#CC2CC2)cc1 [Example 9BG] | > 10000 | 100 to 1000 | > 100 | > 100 | > 100 | > 100 | 
5 | Cc1cc(C#Cc2ccc(CN3CCOCC3)cc2)ccc1C(=O)NC[C@H]1C[C@@H](NC(=O)[C@@H]2C[C@H](F)CN2)CN1C(=O)C1CC1 [Example 7, (2S,4S)—N-((3R,5R)-1-(Cyclopropanecarbonyl)-5-((2-methyl-4-((4-(morpholinomethyl)phenyl)ethynyl)benzamido)methyl)pyrrolidin-3-yl)-4-fluoropyrrolidine-2-carboxamide] | < 500 | 50 to 100 | < 20 | < 20 | < 20 | > 100 | 
6 | CC(C)C(=O)N1C[C@H](NC(=O)[C@@H]2C[C@H](F)CN2)C[C@@H]1C(=O)NCc1ccc(C#Cc2ccccc2)cc1 [Example 9A] |  |  | 20 to 100 (≈ 10.1 to 50.5 µg/mL) | 20 to 100 (≈ 10.1 to 50.5 µg/mL) | > 100 | > 100 | 
7 | CC(C)C(=O)N1C[C@H](NC(=O)[C@@H]2CCCN2)C[C@@H]1C(=O)NCc1ccc(C#Cc2ccccc2)cc1 [Example 9J] | 2500 to 10000 | 100 to 1000 | 20 to 100 (≈ 9.73 to 48.7 µg/mL) | > 100 | > 100 | > 100 | 
8 | O=C(NC[C@H]1C[C@@H](NC(=O)[C@@H]2C[C@H](F)CN2)CN1C(=O)C1CC1)c1ccc(C#Cc2ccc(CN3CCOCC3)cc2)cc1 [Example 9AS] | < 500 | < 50 | < 20 | < 20 | < 20 |  | > 100
